Experimental data taken from patent US8884017B2, “2-heteroarylcarboxylic acid amides” (Bayer Intellectual Property GmbH, priority 2001, dated 2014).
Where a name gives a salt, the structure may show the parent alone.

Target: α7-nAChR (Rattus norvegicus (Rat), UniProt Q05941)
Assay: Affinity for α7-nAChR by inhibition of [3H]-methyllycaconitine binding to rat brain membranes
Conditions: rat brain membranes (P2 fraction), Ki=IC50/(1+L/KD)
Experimental: 1. Determination of the Affinity of Test Substances for α7-nAChR by Inhibition of [^3H]-methyllycaconitine Binding to Rat Brain Membranes
The [^3H]-methyllycaconitine binding assay is a modification of the method described by Davies et al. in Neuropharmacol.
Rat brain tissue (hippocampus or whole brain) is homogenized in homogenization buffer (10% w/v, 0.32 M sucrose, 1 mM EDTA, 0.1 mM phenylmethylsulfonyl fluoride (PMSF), 0.01% (w/v) NaN3, pH 7.4, 4° C.) at 600 rpm in a glass homogenizer. The homogenate is centrifuged (1000×g, 4° C., 10 min) and the supernatant is removed. The pellet is resuspended (20% w/v) and the suspension is centrifuged (1000×g, 4° C., 10 min). The two supernatants are combined and centrifuged (15 000×g, 4° C., 30 min). The pellet obtained in this way is referred to as the P2 fraction.
The P2 pellet is washed with binding buffer (50 mM Tris-HCl, 1 mM MgCl2, 120 mM NaCl, 5 mM KCl, 2 mM CaCl2, pH 7.4), and centrifuged (15 000×g, 4° C., 30 min), twice.
The P2 membranes are resuspended in binding buffer and incubated in a volume of 250 μl (amount of membrane protein 0.1-0.5 mg) in the presence of 1-5 nM [^3H]-methyllycaconitine, 0.1% (w/v) BSA (bovine serum albumin) and various concentrations of the test substance at 21° C. for 2.5 h. Incubation is then carried out in the presence of 1 μM α-bungarotoxin or 100 μM nicotine or 10 μM MLA (methyllycaconitine) to determine the non-specific binding.
The incubation is stopped by adding 4 ml PBS (20 mM Na2HPO4, 5 mM KH2PO4, 150 mM NaCl, pH 7.4, 4° C.) and filtering through type A/E glass fibre filters (Gelman Sciences) which have previously been placed in 0.3% (v/v) polyethyleneimine (PEI) for 3 h. The filters are washed twice with 4 ml of PBS (4° C.), and the bound radioactivity is determined by scintillation measurement. All the assays are carried out in triplicate.

Sequence of α7-nAChR (Q05941 23-502 limits assumed): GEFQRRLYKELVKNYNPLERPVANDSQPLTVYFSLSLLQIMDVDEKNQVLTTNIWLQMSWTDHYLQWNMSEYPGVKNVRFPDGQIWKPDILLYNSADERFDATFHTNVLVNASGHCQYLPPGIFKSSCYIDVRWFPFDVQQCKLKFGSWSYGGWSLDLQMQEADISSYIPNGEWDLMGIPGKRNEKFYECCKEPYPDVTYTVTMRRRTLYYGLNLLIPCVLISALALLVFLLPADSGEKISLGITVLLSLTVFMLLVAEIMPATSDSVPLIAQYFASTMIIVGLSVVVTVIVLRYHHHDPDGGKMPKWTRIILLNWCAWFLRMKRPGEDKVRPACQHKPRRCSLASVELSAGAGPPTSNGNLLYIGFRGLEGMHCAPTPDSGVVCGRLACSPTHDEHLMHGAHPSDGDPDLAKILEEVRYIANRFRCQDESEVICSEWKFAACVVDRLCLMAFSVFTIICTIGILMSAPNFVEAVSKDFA

Structure (SMILES) | Ki [nM]
COc1cccc2cc(C(=O)N[C@H]3CN4CCC3CC4)oc12 [Example 19, N-[(3R)-1-Azabicyclo[2.2.2]oct-3-yl]-7-methoxy-1-benzofuran-2-carboxamide hydrochloride] | 42
Nc1ccc2cc(C(=O)N[C@H]3CN4CCC3CC4)oc2c1 [Example 35, N-[(3R)-1-Azabicyclo[2.2.2]oct-3-yl]-6-amino-1-benzofuran-2-carboxamide] | 3.7
O=C(N[C@H]1CN2CCC1CC2)c1cc2cccc([N+](=O)[O-])c2o1 [Example 36, N-[(3R)-1-Azabicyclo[2.2.2]oct-3-yl]-7-nitro-1-benzofuran-2-carboxamide] | 63
Nc1cccc2cc(C(=O)N[C@H]3CN4CCC3CC4)oc12 [Example 37, N-[(3R)-1-Azabicyclo[2.2.2]oct-3-yl]-7-amino-1-benzofuran-2-carboxamide] | 80
O=C(N[C@H]1CN2CCC1CC2)c1cc2cc(F)ccc2o1 [Example 42, N-[(3R)-1-Azabicyclo[2.2.2]oct-3-yl]-5-fluoro-1-benzofuran-2-carboxamide hydrochloride] | 37
O=C(N[C@H]1CN2CCC1CC2)c1cc2cccc(Br)c2o1 [Example 46, N-[(3R)-1-Azabicyclo[2.2.2]oct-3-yl]-7-bromo-1-benzofuran-2-carboxamide] | 58
O=C(N[C@H]1CN2CCC1CC2)c1cc2ccc3ccccc3c2o1 [Example 48, N-[(3R)-1-Azabicyclo[2.2.2]oct-3-yl]naphtho[1,2-b]furan-2-carboxamide hydrochloride] | 75
O=C(N[C@@H]1CN2CCC1CC2)c1cc2cccc(F)c2s1 [Example 59, N-[(3S)-1-Azabicyclo[2.2.2]oct-3-yl]-7-fluoro-1-benzothiophene-2-carboxamide hydrochloride] | 20
Nc1ccc2sc(C(=O)N[C@H]3CN4CCC3CC4)cc2c1 [Example 62, N-[(3R)-1-Azabicyclo[2.2.2]oct-3-yl]-5-amino-1-benzothiophene-2-carboxamide dihydrochloride] | 50
O=C(N[C@H]1CN2CCC1CC2)c1cc2cccc(C(F)(F)F)c2s1 [Example 64, N-[(3R)-1-Azabicyclo[2.2.2]oct-3-yl]-7-trifluoromethyl-1-benzothiophene-2-carboxamide hydrochloride] | 20
O=C(N[C@@H]1CN2CCC1CC2)c1cc2cccc(C(F)(F)F)c2s1 [Example 65, N-[(3S)-1-Azabicyclo[2.2.2]oct-3-yl]-7-trifluoromethyl-1-benzothiophene-2-carboxamide hydrochloride] | 55
Nc1cccc2cc(C(=O)N[C@H]3CN4CCC3CC4)sc12 [Example 68, N-[(3R)-1-Azabicyclo[2.2.2]oct-3-yl]-7-amino-1-benzothiophene-2-carboxamide dihydrochloride] | 2
Nc1ccc2cc(C(=O)N[C@H]3CN4CCC3CC4)sc2c1 [Example 73, 6-Amino-N-[(3R)-1-azabicyclo[2.2.2]oct-3-yl]-1-benzothiophene-2-carboxamide dihydrochloride] | 2.8
O=C(N[C@H]1CN2CCC1CC2)c1cc2cc(F)ccc2s1 [Example 74, N-[(3R)-1-Azabicyclo[2.2.2]oct-3-yl]-5-fluoro-1-benzothiophene-2-carboxamide hydrochloride] | 22
COc1cccc2cc(C(=O)N[C@H]3CN4CCC3CC4)sc12 [Example 76, N-[(3R)-1-Azabicyclo[2.2.2]oct-3-yl]-7-methoxy-1-benzothiophene-2-carboxamide hydrochloride] | 6.7
COc1cccc2cc(C(=O)N[C@@H]3CN4CCC3CC4)sc12 [Example 77, N-[(3S)-1-Azabicyclo[2.2.2]oct-3-yl]-7-methoxy-1-benzothiophene-2-carboxamide hydrochloride] | 20
O=C(N[C@H]1CN2CCC1CC2)c1cc2c(F)cccc2s1 [Example 78, N-[(3R)-1-Azabicyclo[2.2.2]oct-3-yl]-4-fluoro-1-benzothiophene-2-carboxamide hydrochloride] | 80
O=C(N[C@H]1CN2CCC1CC2)c1cc2cc(F)cc(F)c2s1 [Example 80, N-[(3R)-1-Azabicyclo[2.2.2]oct-3-yl]-5,7-difluoro-1-benzothiophene-2-carboxamide hydrochloride] | 31
CC(=O)Nc1ccc2cc(C(=O)N[C@H]3CN4CCC3CC4)sc2c1 [Example 88, 6-(Acetylamino)-N-[(3R)-1-azabicyclo[2.2.2]oct-3-yl]-1-benzothiophene-2-carboxamide hydrochloride] | 28
